Measured values published in US8299048B2, “Hexahydrocyclopentyl[f]indazole sulfonamides and derivatives thereof as selective glucocorticoid receptor modulators” (Merck Sharp & Dohme Corp., priority 2008, dated 2012).
pEC50: −log10 of the molar value.

Assays:
[1] = biological target: T1, human GR (Homo sapiens, UniProt P04150); experiment: Trans-Activation Modulation of Glucocorticoid Receptor (GRAMMER), MMTV-LUC reporter, agonist mode; assay type: cell-based; set-up: endogenous in cells; settings: for Emax: A549, A549 cells, maximum activity, read-out: Transactivation A549 Cells GRAMMER Emax; for pEC50: A549 cells, inflection point, read-out: Transactivation A549 Cells GRAMMER IP
T1 sequence (P04150 1-777): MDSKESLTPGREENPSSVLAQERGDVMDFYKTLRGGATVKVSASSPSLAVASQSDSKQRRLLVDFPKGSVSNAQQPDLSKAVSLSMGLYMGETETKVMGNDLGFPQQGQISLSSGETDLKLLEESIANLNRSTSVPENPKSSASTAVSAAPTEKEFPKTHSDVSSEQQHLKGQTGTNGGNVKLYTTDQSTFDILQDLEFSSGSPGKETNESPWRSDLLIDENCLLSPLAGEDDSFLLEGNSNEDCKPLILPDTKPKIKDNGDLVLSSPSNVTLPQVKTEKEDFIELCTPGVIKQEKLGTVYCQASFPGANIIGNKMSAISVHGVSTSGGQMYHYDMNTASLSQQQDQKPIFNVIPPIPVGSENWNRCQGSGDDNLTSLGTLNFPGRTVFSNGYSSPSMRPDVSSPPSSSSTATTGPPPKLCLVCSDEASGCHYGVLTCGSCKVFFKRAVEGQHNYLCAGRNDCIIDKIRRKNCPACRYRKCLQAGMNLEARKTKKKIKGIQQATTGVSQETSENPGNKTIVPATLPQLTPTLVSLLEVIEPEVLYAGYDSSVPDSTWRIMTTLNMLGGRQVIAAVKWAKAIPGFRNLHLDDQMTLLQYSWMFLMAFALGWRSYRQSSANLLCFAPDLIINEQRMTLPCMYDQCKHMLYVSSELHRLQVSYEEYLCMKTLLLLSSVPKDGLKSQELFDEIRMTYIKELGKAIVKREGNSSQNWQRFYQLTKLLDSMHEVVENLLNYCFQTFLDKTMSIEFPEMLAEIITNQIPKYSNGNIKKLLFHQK
How it was run: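 Readout is luciferase from a modified MMTV LTR promoter after 24 h compound exposure alongside 10 nM dexamethasone (100% activity reference), DMSO ≤1%.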

[2] = biological target: T1, human GR; experiment: Transrepression Assay (GITAR), TNFα-β-lactamase reporter in U937 cells; assay type: cell-based; set-up: U937 cells contain an endogenous glucocorticoid receptor (GR); endogenous in cells; host or cells: U937 cells stably transfected with the TNF-alpha promoter/beta-lactamase reporter; settings: for GITAR > GRAMM % SEP: GITAR Emax minus GRAMMER Emax; for pEC50: U937 cells, inflection point, read-out: Transrepression U937 Cells GITAR IP
How it was run: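 Stable TNF-α-promoter/β-lactamase U937 line, endogenous GR; 50,000 cells/well. Cmpd 30–45 min 37 °C → PMA 5 ng/ml + LPS 100 ng/ml final, 37 °C ~18 hr → CCF2-AM 70–90 min RT. 100 nM dex = 100%.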

[3] = U-937, U937 cells, maximum activity, read-out: Transrepression U937 Cells GITAR Emax
[4] = U-937, activity repressed by 100 nM dexamethasone alone set as 100%, read-out: maximal activity in the transrepression (GITAR) assay

Emax [1] [%] | pEC50 [1] | GITAR > GRAMM % SEP [2] [%] | pEC50 [2] | Emax [2, 3] [%] | Emax [2, 4] [%] | Structure (SMILES)
58.3 | 5.97 | 23.0 | 5.90 | 81.3 | > 5 | C[C@]12Cc3cnn(-c4ccc(F)cc4)c3C=C1CC[C@@H]2CN(CC(O)C(F)(F)F)S(=O)(=O)Cc1ccccc1C(=O)O (stereo partly drawn) [Example 164, 2-({[{[(4αR,5S)-1-(4-fluorophenyl)-4α-methyl-1,4,4α,5,6,7-hexahydrocyclopenta[f]indazol-5-yl]methyl}(3,3,3-trifluoro-2-hydroxypropyl)amino]sulfonyl}methyl)benzoic acid]
4.5 | 6.71 | 15.0 | 6.64 | 19.5 | > 5 | Cn1cc(S(=O)(=O)N(CC(O)C(F)F)C[C@H]2CCC3=Cc4c(cnn4-c4ccc(F)cc4)C[C@@]32C)c(C(F)(F)F)n1 (stereo partly drawn) [Example 156, N-(3,3-difluoro-2-hydroxypropyl)-N-{[(4αR,5S)-1-(4-fluorophenyl)-4α-methyl-1,4,4α,5,6,7-hexahydrocyclopenta[f]indazol-5-yl]methyl}-1-methyl-3-(trifluoromethyl)-1H-pyrazole-4-sulfonamide]
2 | 7.19 | 21.0 | 5.99 | 23 | > 5 | C[C@]12Cc3cnn(-c4ccc(F)cc4)c3C=C1CC[C@@H]2CN(CCc1ccccn1)S(=O)(=O)CCN1C(=O)c2ccccc2C1=O [Example 152, 2-(1,3-dioxo-1,3-dihydro-2H-isoindol-2-yl)-N-{[(4αR,5S)-1-(4-fluorophenyl)-4α-methyl-1,4,4α,5,6,7-hexahydrocyclopenta[f]indazol-5-yl]methyl}-N-(2-pyridin-2-ylethyl)ethanesulfonamide]
28.9 | 6.44 | 5.2 | 6.26 | 34.1 | > 5 | COC(=O)c1ccccc1CCN(C[C@H]1CCC2=Cc3c(cnn3-c3ccc(F)cc3)C[C@@]21C)S(=O)(=O)CC(F)(F)F [Example 159, methyl 2-(2-{{[(4αR,5S)-1-(4-fluorophenyl)-4α-methyl-1,4,4α,5,6,7-hexahydrocyclopenta[f]indazol-5-yl]methyl}[(2,2,2-trifluoroethyl)sulfonyl]amino}ethyl)benzoate]

Further lines, the compound ahead of its results:

Structure (SMILES) | Emax [1] [%] | pEC50 [1] | GITAR > GRAMM % SEP [2] [%] | pEC50 [2] | Emax [2, 3] [%] | Emax [2, 4] [%]
CC(C)CS(=O)(=O)N(CCc1ccccc1F)C[C@H]1CCC2=Cc3c(cnn3-c3ccc(F)cc3)C[C@@]21C [Example 103, N-[2-(2-fluorophenyl)ethyl]-N-{[(4αR,5S)-1-(4-fluorophenyl)-4α-methyl-1,4,4α,5,6,7-hexahydrocyclopenta[f]indazol-5-yl]methyl}-2-methylpropane-1-sulfonamide] | 68.8 | 6.44 | 7.7 | 6.75 | 76.5 | > 5
CC(CN(C[C@H]1CCC2=Cc3c(cnn3-c3ccc(F)cc3)C[C@@]21C)S(=O)(=O)CC(F)(F)F)c1cccnc1 (stereo partly drawn) [Example 146, 2,2,2-trifluoro-N-{[(4αR,5S)-1-(4-fluorophenyl)-4α-methyl-1,4,4α,5,6,7-hexahydrocyclopenta[f]indazol-5-yl]methyl}-N-(2-pyridin-3-ylpropyl)ethanesulfonamide] | 91.5 | 6.58 | 1.8 | 6.51 | 93.3 | > 5
C[C@]12Cc3cnn(-c4ccc(F)cc4)c3C=C1CC[C@@H]2CN(CCO)S(=O)(=O)c1ccccc1C(N)=O [Example 117, 2-{[{[(4αR,5S)-1-(4-fluorophenyl)-4α-methyl-1,4,4α,5,6,7-hexahydrocyclopenta[f]indazol-5-yl]methyl}(2-hydroxyethyl)amino]sulfonyl}benzamide] | 45.1 | 6.35 | 28.6 | 6.27 | 73.7 | > 5
C[C@]12Cc3cnn(-c4ccc(F)cc4)c3C=C1CC[C@@H]2CN(CCc1ccccn1)S(=O)(=O)CC(F)(F)F [Example 128, 2,2,2-trifluoro-N-{[(4αR,5S)-1-(4-fluorophenyl)-4α-methyl-1,4,4α,5,6,7-hexahydrocyclopenta[f]indazol-5-yl]methyl}-N-(2-pyridin-2-ylethyl)ethanesulfonamide] | 69.1 | 6.60 | 19.3 | 6.49 | 88.4 | > 5
C[C@]12Cc3cnn(-c4ccccc4)c3C=C1CC[C@@H]2CN(CCc1ccccc1O)S(=O)(=O)Cc1cccnc1 [Example 141, N-[2-(2-hydroxyphenyl)ethyl]-N-{[(4αR,5S)-4α-methyl-1-phenyl-1,4,4α,5,6,7-hexahydrocyclopenta[f]indazol-5-yl]methyl}-1-pyridin-3-ylmethanesulfonamide] | 22.6 | 6.36 | 39.7 | 6.40 | 62.2 | > 5
C[C@]12Cc3cnn(-c4ccc(F)cc4)c3C=C1CC[C@@H]2CN(CCc1ccccc1F)S(=O)(=O)Cc1ccccc1Cl [Example 107, 1-(2-chlorophenyl)-N-[2-(2-fluorophenyl)ethyl]-N-{[(4αR,5S)-1-(4-fluorophenyl)-4α-methyl-1,4,4α,5,6,7-hexahydrocyclopenta[f]indazol-5-yl]methyl}methanesulfonamide] | 73 | 6.40 | 11.4 | 7.27 | 84.4 | > 5
C[C@]12Cc3cnn(-c4ccc(F)cc4)c3C=C1CC[C@@H]2CN(CC(O)c1ccccn1)S(=O)(=O)CC(F)(F)F (stereo partly drawn) [Example 142, 2,2,2-trifluoro-N-{[(4αR,5S)-1-(4-fluorophenyl)-4α-methyl-1,4,4α,5,6,7-hexahydrocyclopenta[f]indazol-5-yl]methyl}-N-(2-hydroxy-2-pyridin-2-ylethyl)ethanesulfonamide] | 78.1 | 6.91 | 14.4 | 6.85 | 92.5 | > 5
C[C@]12Cc3cnn(-c4ccc(F)cc4)c3C=C1CC[C@@H]2CN(CC(O)C(F)(F)F)S(=O)(=O)Cc1cccnc1 (stereo partly drawn) [Example 149, N-{[(4αR,5S)-1-(4-fluorophenyl)-4α-methyl-1,4,4α,5,6,7-hexahydrocyclopenta[f]indazol-5-yl]methyl}-1-pyridin-3-yl-N-(3,3,3-trifluoro-2-hydroxypropyl)methanesulfonamide] | 32.4 | 6.45 | 44.7 | 6.60 | 77.1 | > 5
